Measured values published in patent publication US9073861B2, “Diphenylmethyl piperazine derivative and pharmaceutical composition using same” (AETAS PHARMA CO., LTD., priority 2011, dated 2015).

Experiments:
normal rats = assay: Hemodynamics before and after intravenous administration in anesthetized normal rats (left ventricular pressure catheter); format: in vivo, Wistar male rats; conditions: 0.1 mg/kg/min for 10 min i.v.; for maximum +dP/dt after administration as compared to that by the comparative compound [A]: FIG. 7; for maximum −dP/dt after administration as compared to that by the comparative compound [A]: FIG. 8
Protocol: Wistar male rats were bred for a week and then anesthetized by inhalation of 3% isoflurane. A pressure sensor-tipped catheter (2F Millar) was inserted into the left ventricle from the right common carotid artery, and a polyethylene tube (SP10) for injection of the compounds of the present invention or physiological saline was inserted from the right femoral vein. After stabilizing hemodynamics for 10 minutes, the compound [2] of the present invention was administered from the polyethylene tube at 0.1 mg/kg/min for 10 min, and the cardiac rate, left ventricular pressure, maximum +dP/dt, and maximum −dP/dt were measured for 20 heart beats every minute. In the control group, only physiological saline, which is a solvent, was administered. It is noted that the injection rate of each solution was 16.6 μl per min.
The cardiac rate, maximum left ventricular pressure, maximum +dP/dt and maximum −dP/dt before administration of a drug were considered as 100%, and the values after administration were represented by values (% representation) relative to the values before administration. Using n=3 rats, experiments were carried out. Data are shown as mean and standard deviation. Consequently, cardiac rate before and after administration (the left side in FIG. 1) and changes in the maximum left ventricular pressure (the right side in FIG. 1) are shown in FIG. 1, and changes in the maximum +dP/dt (the left side in FIG. 2) and changes in the maximum −dP/dt (the right side in FIG. 2) are shown in FIG. 2.
(§1) Wistar male rats were bred for a week and then anesthetized by inhalation of 3% isoflurane. Experiments were carried out in the same manner as in Test Example 1, and the compound [3] of the present invention was administered as a test compound at 0.1 mg/kg/min for 10 min, and the cardiac rate, left ventricular pressure, maximum +dP/dt, and maximum −dP/dt were measured for 20 heart beats every minute. The maximum +dP/dt or the maximum −dP/dt before administration was considered as 100%, and the value after administration was represented by a value (% representation) relative to the value before administration. Data are shown as mean and standard deviation. Using n=3 rats, experiments were carried out.
as §1, with “[4]” for “[3]”
Wistar male rats were bred for a week and then anesthetized by inhalation of 3% isoflurane. Experiments were carried out in the same manner as in Test Example 1, and the comparison comparative compound [A] was administered as a test compound at 0.1 mg/kg/min for 10 min, and the cardiac rate, left ventricular pressure, maximum +dP/dt, and maximum −dP/dt were measured for 20 heart beats every minute. The maximum +dP/dt or the maximum −dP/dt before administration was considered as 100%, and the value after administration was represented by a value (% representation) relative to the value before administration. Data are shown as mean and standard deviation. Using n=3 rats, experiments were carried out.
From the results of the tests carried out in Test Examples 1, 3, 4 and 5, the maximum +dP/dt (FIG. 7) and the maximum −dP/dt (FIG. 8) after administration of the compound [2], and compound [3], and compound [4] of the present invention as well as the comparative compound [A] were compared and examined.

[1] = system: rats with obsolete myocardial infarction; assay: Effect on myocardial contraction and relaxation in rats with obsolete myocardial infarction (coronary ligation, one month after operation); format: in vivo, Wistar male rats; conditions: 0.1 mg/kg/min for 10 min i.v., n=3
Text: Wistar male rats were anesthetized by inhalation of 3% isoflurane. The chest was opened at the left third intercostal space and the pericardial membrane was incised. The left anterior descending coronary artery was completely ligated with silk string (6.0; Ethicon) in the infarction group, and then the chest was immediately closed. Following this procedure, the inserted endotracheal tube was removed, and rats were awakened and then returned to a breeding room.
One month after operation, rats were anesthetized and endotracheally intubated, a pressure sensor-tipped catheter (2F Millar) was inserted into the left ventricle from the right common carotid artery, and a polyethylene tube (SP10) for injection of physiological saline or the compounds of the present invention was inserted from the right femoral vein in the same manner as in Test Example 1. After stabilizing hemodynamics for 10 minutes, the compound [2] of the present invention was administered from the polyethylene tube at 0.1 mg/kg/min for 10 min, and the cardiac rate, left ventricular pressure, maximum +dP/dt, and maximum −dP/dt were measured for 20 heart beats every minute. In the control group, only physiological saline, which is a solvent, was administered. It is noted that the injection rate of each solution was 16.6 μl per min. Using n=3 rats, experiments were carried out.
The maximum +dP/dt or the maximum −dP/dt before administration was considered as 100%, and the value after administration was represented by a value (% representation) relative to the value before administration. Data are shown as mean and standard deviation.

Structure (SMILES)	maximum +dP/dt (index of contractile function) after vs before administration (normal rats; pre-administration = 100%, n=3)	maximum −dP/dt (index of relaxing function) after vs before administration (normal rats; pre-administration = 100%, n=3)	maximum +dP/dt after administration as compared to that by the comparative compound [A] (normal rats)	maximum −dP/dt after administration as compared to that by the comparative compound [A] (normal rats)	cardiac rate after administration relative to before administration (normal rats; pre-administration = 100%, n=3)	left ventricular pressure after administration relative to before administration (normal rats; pre-administration = 100%, n=3)	cardiac rate after vs before administration [1]	left ventricular pressure after vs before administration [1]	maximum +dP/dt after vs before administration ([1]; pre-administration = 100%)	maximum −dP/dt after vs before administration ([1]; pre-administration = 100%)
OC(CN1CCN(C(c2ccccc2)c2ccccc2)CC1)CN1CCC(O)(c2ccc(Cl)cc2)CC1 (centres unmarked) [comparative compound [A], 1-[4-(diphenylmethyl)piperazinyl]-3-[4-(4-chlorophenyl)-4-hydroxy-piperidinyl]-2-propanol, reference compound]	tended to slightly increase after administration of the comparative compound [A], but significant changes were not observed	tended to slightly increase after administration of the comparative compound [A], but significant changes were not observed	–	–	–	–	–	–	–	–
OC(CN1CCN(C(c2ccccc2)c2ccccc2)CC1)CN1CCC(O)(c2ccccc2)CC1 (centres unmarked) [compound [2], 1-[4-(diphenylmethyl)piperazinyl]-3-(4-hydroxy-4-phenyl-piperidinyl)-2-propanol]	significant increases	significant increases	significantly raised	significantly raised	not increased	significantly raised	significant changes in the cardiac rate were not observed	significantly increased	significantly increased	significantly increased
OC1(c2ccc(Cl)cc2)CCN(CCCN2CCN(C(c3ccccc3)c3ccccc3)CC2)CC1 [compound [3], 1-[4-(diphenylmethyl)piperazinyl]-3-[4-(4-chlorophenyl)-4-hydroxy-piperidinyl]propane]	significantly increased	significantly increased	significantly raised	significantly raised	–	–	–	–	–	–
Cc1ccc(C2(O)CCN(CC(O)CN3CCN(C(c4ccccc4)c4ccccc4)CC3)CC2)cc1 (centres unmarked) [compound [4], 1-[4-(diphenylmethyl)piperazinyl]-3-[4-hydroxy-4-(4-methylphenyl)-piperidinyl]-2-propanol]	significantly increased	significantly increased	significantly raised	significantly raised	–	–	–	–	–	–
